Patent US12419861B2, “Method for preventing and/or treating chronic traumatic encephalopathy-i” (EUSTRALIS PHARMACEUTICALS LIMITED (trading as Pressura …, priority 2013, dated 2025)

System: tau phosphorylation
Experiment: Tau phosphorylation after concussive injury in the rat (rodent model of concussion, FIG. 3)
Assay type: in vivo
Conditions: NK1 receptor antagonist administered at 30 min after induction of injury, assessed at 3 day time point, compared with injured untreated animals
Source text: Note that concussive injury in the rat causes extensive tau phosphorylation (C,D) by 3 days after the concussive event compared to non-injured animals (A,B). […] Concussion results in perivascular substance P release Having established that hyperphosphorylated tau accumulates perivascularly following concussive injury, we used an animal model of concussion to investigate whether concussion causes perivascular release of substance P. We developed a rodent model of concussion to replicate the concussive event (Donkin et al., 2004, 7th International Neurotrauma Symposium, pp 75-78, Medimond Publishers, Bologna, Italy) and subsequently determined whether substance P was released after such an event. There was a clear increase in brain perivascular substance P immunoreactivity after the concussive event (FIG. 2). […] Administration of a NK1 receptor antagonist prevents tau phosphorylation Having shown that mechanical injury causes release of substance P after concussive injury, we then investigated whether a substance P NK1 receptor antagonist reduces tau hyperphosphorlation after concussive injury. […] Note that concussive injury in the rat causes extensive tau phosphorylation (C,D) by 3 days after the concussive event compared to non-injured animals (A,B). […] Thus, administration of an NK1 receptor antagonist prevents tau hyperphosphorylation and thus prevents the development of CTE.

CC(=O)N[C@@H](Cc1c[nH]c2ccccc12)C(=O)O [n-acetyl-L-tryptophan, N-acetyl-L-tryptophan]
effect on tau phosphorylation after concussive injury: almost complete inhibition of tau phosphorylation
